Source: patent US20050069907A1, “Methods for using double-mutant RNA polymerases with reduced discrimination between non-canonical and canonical nucleoside triphosphates” (priority 2002, published 2005)

Tests used:
Assay type in all cases: biochemical
[1] = test system: poly(dT); test: Apparent miscoding on homopolymeric template poly(dT)
Description: Transcription reactions: Transcription reactions were carried out in 40 mM Tris-Cl pH 8.0, 15 mM MgCl2, and 5 mM DTT or 20 mM Manganese Citrate pH 8.0, 5 mM DTT at 37° C. Template, polymerase, and NTP concentrations were as indicated in the legends to the figures and tables. Relative activity determinations were made by taking 4 μl aliquots of reactions at 5, 10, and 20 minute time points and spotting on to DE81 filter paper. Unincorporated nucleotides were separated from incorporated nucleotides by washing the filter paper with 0.5 M KH2PO4 pH 7.0 and retained radioactive nucleotide was quantitated with a Molecular Dynamics phosphorimager. To evaluate rNTP/dNTP selectivity, reactions were run with 4 rNTPs and pT75 as template and α-P^32 rNTPs or α-P^32 dNTPs were used to label the transcripts. The relative rate of incorporation of an rNTP vs. its cognate dNTP was determined from the relative percentages of labeled rNTP vs. dNTP incorporated into DE81 retainable RNA at 5, 10, and 20 minute time points. Apparent miscoding frequencies were determined similarly, though in this instance the template was a single-stranded homopolymer and the reaction contained the complementary unlabeled rNTP, and complementary α-P^32 rNTP or one of the 3 non-complementary α-P^32 rNTPs. The relative percentages of labeled complementary vs. non-complementary rNTPs incorporated at 5, 10 and 20 minute time points gave an apparent miscoding rate. The rNTP/dNTP selectivity assay was used to test the following T7 RNAP mutants for effects on substrate discrimination: D537S, D537E, S539A, R5S1S, D552S, R627S, K631S, L637A, Y639S, Y639F, Y639A, G640A, F644A, G645A, Q649S, […], H811S, H811A, D812A, D812E, D812S, D812N, D879E+ΔF882+ΔA883, D879E+A881T+ΔA883, D879E+F884+A885, D879E+F882Y, D879E+ΔA883, D879E+F882W, D879E.
An increase in miscoding would be reflected in an increase in the rate of incorporation of the non-complementary NTP into RNA.
Numbers are averages from 2 experiments and reflect the ratio of the percentages of labeled rNTPs incorporated into RNA in reactions in which unlabeled complementary rNTPs were in great excess (0.5 mM) to labeled complementary or non-complementary rNTPs. Templates were at 0.1 mg/ml. Polymerases were at 10^−8 M in Mg^2+ buffer and 10^−7 M in Mn^2+ buffer.
*The upper number refers to results obtained in Mg^2+ buffer, the lower number to results in Mn^2+ buffer. n.d.: G640A, Y639A, Y639S were poorly active in Mn^2+ buffer, or on poly(dT) under all conditions.

[2] = test system: pT75; test: Activity with NTPs containing different 2′-substituents; design: unit not given here
Description: Activity was determined with pT75 as template but with one of the rNTPs replaced with a dNTP or a 2′-modified NTP. The labeling NTP was UTP (in reactions with 2′-modified CTPs or ATPs) or CTP (in reactions with 2′-modified UTPs). Y639F and Y639M represent enzymes with substitutions of the wild-type (W.T.) tyrosine at position 639 by phenyalanine (F) or methionine (M), respectively.

[3] = test system: supercoiled pT75; test: Kinetic constants (Km, kcat) with rNTPs or dNTPs
Source text: 1. One first determines the Km and the kcat for each enzyme (mutant and wild-type) using the non-canonical nucleotide as a substrate and using the canonical nucleotide as a substrate, as was described previously (Patra, et al., 1992). The value “Km” expresses how readily the enzyme will bind the substrate (a larger Km implies weaker binding) and “kcat” expresses the rapidity with which the substrate, once bound by the enzyme, is reacted upon.
2. One next calculates the numerical value for kcat/Km for each enzyme and for each substrate. By broad scientific consensus, the specificity of an enzyme for a substrate is felt to be most suitably expressed by this ratio.
3. For each enzyme, one then calculates the numerical value obtained by using the value of kcat/Km for the canonical substrate in the numerator and kcat/Km for the non-canonical substrate in the denominator. This number indicates how much a given enzyme discriminates between the two substrates. […] If this value is greater than 1, then the enzyme discriminates by that factor between the two substrates; for example, if the value is 100, then the enzyme discriminates by a factor of 100 in favor of the canonical substrate compared to the non-canonical substrate. Similarly, a value less than 1 means that the enzyme discriminates in favor of the non-canonical substrate over the canonical substrate.
4. Finally, one compares the numerical value calculated in step 3 above for the wild-type (W.T.) enzyme with the value calculated in step 3 for the mutant enzyme. If the value calculated for the mutant enzyme is less than the value calculated for the wild-type enzyme, then the mutant enzyme “has a reduced discrimination for the non-canonical substrate compared to the wild-type enzyme.” For example, if the values calculated in step 3 are 100 for the wild-type enzyme and 10 for the mutant enzyme, then the discrimination of the mutant enzyme in favor of the canonical substrate (or against the non-canonical substrate) is reduced 10-fold compared to the discrimination of the wild-type enzyme.
Determination of NTP Km and kcat was as described previously (Patra, et al., 1992).
The increased utilization of dNTPs by Y639F is due to both a decreased Km and an increased kcat for dNTPs: The Km and kcat of the W.T. and Y639F polymerases with rATP, rITP and 5 different dNTPs were measured (see, Table VI).

[4] = rATP, ranges from 3 experiments

Substance	Increase in miscoding rates in Mn^2+ buffer, on average [1] [fold]	Relative rate of incorporation ATP/CTP ([1]; Mg^2+ buffer)	Relative rate of incorporation ATP/GTP ([1]; Mg^2+ buffer)	Relative rate of incorporation ATP/UTP ([1]; Mg^2+ buffer)	Relative rate of incorporation ATP/CTP ([1]; Mn^2+ buffer)	Relative rate of incorporation ATP/GTP ([1]; Mn^2+ buffer)	Relative rate of incorporation ATP/UTP ([1]; Mn^2+ buffer)	Activity ([2]; 2′-F-ATP replacing ATP)	Activity ([2]; 2′-F-CTP replacing CTP)	Activity ([2]; 2′-F-UTP replacing UTP)	Activity ([2]; 2′-NH2-ATP replacing ATP)	Activity ([2]; 2′-NH2-CTP replacing CTP)	Activity ([2]; 2′-NH2-UTP replacing UTP)	Activity ([2]; 2′-dATP replacing ATP)	Activity ([2]; 2′-dCTP replacing CTP)	Activity ([2]; 2′-dUTP replacing UTP)	Activity ([2]; ATP)	Activity ([2]; CTP)	Activity ([2]; UTP)	Discrimination rNTPs vs. dNTPs: average kcat/Km of four rNTPs over average kcat/Km of four dNTPs [3]	also measured
W.T.: wild-type T7 RNA polymerase [reference compound]	~5	>340	170	121	77	50	21	6.6 ± .12	3.4 ± .22	3.1 ± .14	18 ± .39	34 ± .86	5.9 ± .27	2.7 ± .28	1.6 ± .16	2.4 ± .11	100	100	100	about 120 fold	Kcat ([3]; DTTP): 26 to 29 s⁻¹; Km ([3]; DTTP): 209 to 262 µM; Kcat ([3]; dATP): 6 to 9 s⁻¹; Km ([3]; dATP): 2000 to 5000 µM; Kcat ([3]; dCTP): 9 to 14 s⁻¹; Km ([3]; dCTP): 4300 to 13500 µM; Kcat ([3]; dGTP): 5 to 9 s⁻¹; Km ([3]; dGTP): 602 to 701 µM; Kcat ([3]; dUTP): 25 to 39 s⁻¹; Km ([3]; dUTP): 4400 to 9000 µM; Kcat ([3]; rATP): 190 to 220 s⁻¹; Km [3, 4]: 34 to 68 µM; Kcat ([3]; rITP): 170 to 230 s⁻¹; Km ([3]; rITP): 29 to 59 µM
Y639F: T7 RNAP with wild-type tyrosine at position 639 substituted by phenylalanine	~5	>94	94	94	60	27	20	50 ± 1.4	63 ± 3.1	73 ± 2.6	21 ± .75	60 ± 2.5	12 ± .41	40 ± 1.3	57 ± 1.7	46 ± 2.4	96 ± 3.0	103 ± 2.3	95 ± 6.7	about 6 fold	Increase, relative to W.T., in ratio of rates of rGTP to rATP incorporation [1]: ~2 fold; kcat with dNTPs less than for rNTPs [3]: 2-4 fold; Kcat ([3]; DTTP): 70 to 110 s⁻¹; Km ([3]; DTTP): 38 to 59 µM; Kcat ([3]; dATP): 50 to 70 s⁻¹; Km ([3]; dATP): 200 to 350 µM; Kcat ([3]; dCTP): 50 to 90 s⁻¹; Km ([3]; dCTP): 920 to 1600 µM; Kcat ([3]; dGTP): 30 to 50 s⁻¹; Km ([3]; dGTP): 185 to 264 µM; Kcat ([3]; dUTP): 70 to 130 s⁻¹; Km ([3]; dUTP): 52 to 92 µM; Reduced discrimination between dNTPs and rNTPs compared to wild-type ([3]; from average kcat/Km values): ~20 fold; Kcat ([3]; rATP): 150 to 210 s⁻¹; Km [3, 4]: 53 to 125 µM; Kcat ([3]; rITP): 180 to 200 s⁻¹; Km ([3]; rITP): 34 to 94 µM
